Reference: US20050004167A1, “Branched chain amino acid-dependent aminotransferase inhibitors and their use in the treatment of neurodegenerative diseases” (WARNER-LAMBERT COMPANY LLC, priority 2001, published 2005)
Several values for one entry are separate records, joined by “and”; a condition that tells them apart may be missing. Identical values can stand only once.

How the values were obtained:
[1] = target: T1, human Branched Chain Amino Acid Aminotransferase cytosolic form (hBCATc) (Homo sapiens, UniProt P54687); assay: In vitro coupled enzyme assay (glutamate dehydrogenase, NADH formation), human BCATc; assay type: biochemical; conditions: recombinant human BCATc, 37° C., 25 mM phosphate buffer pH 7.8; several values in a cell = repeat determinations; read-out: RhBCATc
T1 construct: made in house; host or cells: E. coli BL21(DE3)
T1 sequence (P54687 1-386): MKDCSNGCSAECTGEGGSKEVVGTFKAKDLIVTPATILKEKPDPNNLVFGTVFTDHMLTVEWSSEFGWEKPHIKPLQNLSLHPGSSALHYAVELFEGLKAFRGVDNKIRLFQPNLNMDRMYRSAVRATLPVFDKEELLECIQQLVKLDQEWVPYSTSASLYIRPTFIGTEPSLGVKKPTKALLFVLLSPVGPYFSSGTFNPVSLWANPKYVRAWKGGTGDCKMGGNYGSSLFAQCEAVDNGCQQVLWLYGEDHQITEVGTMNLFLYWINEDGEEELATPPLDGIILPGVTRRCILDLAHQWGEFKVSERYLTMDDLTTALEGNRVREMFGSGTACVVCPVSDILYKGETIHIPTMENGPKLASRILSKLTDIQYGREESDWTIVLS
Procedure, shortened: (§1)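 At 37 °C in 25 mM phosphate pH 7.8 with 2 mM DTT, 1.25 μg His-tag-purified E. coli-expressed BCAT transaminated 750 μM L-leucine with 500 μM α-ketoglutarate and 10 μM PLP. Glutamate was coupled via glutamate dehydrogenase (1 mM NAD+, 4 mM ADP) to NADH formation at 340 nm. Compounds were added in DMSO up to 5% v/v.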

[2] = target: T2, rat BCAT cytosolic form (Rattus norvegicus, UniProt P54690); assay: In vitro coupled enzyme assay (glutamate dehydrogenase, NADH formation), rat BCATc; assay type: biochemical; conditions: recombinant rat BCATc, 37° C., 25 mM phosphate buffer pH 7.8; several values in a cell = repeat determinations; read-out: RrBCATc
T2 construct: made in house; host or cells: E. coli BL21(DE3)
T2 sequence (P54690 1-411): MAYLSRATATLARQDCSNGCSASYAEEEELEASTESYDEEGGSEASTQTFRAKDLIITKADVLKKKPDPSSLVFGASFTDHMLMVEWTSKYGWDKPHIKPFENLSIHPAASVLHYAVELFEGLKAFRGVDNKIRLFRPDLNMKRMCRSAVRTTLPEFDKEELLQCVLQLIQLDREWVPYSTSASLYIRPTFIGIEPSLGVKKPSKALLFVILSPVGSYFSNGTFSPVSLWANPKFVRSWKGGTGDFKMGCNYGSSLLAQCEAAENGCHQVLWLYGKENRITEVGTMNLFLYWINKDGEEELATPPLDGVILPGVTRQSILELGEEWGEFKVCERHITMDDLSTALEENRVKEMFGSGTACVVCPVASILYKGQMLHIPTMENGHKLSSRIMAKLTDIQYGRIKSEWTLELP
Procedure, shortened: as §1

SMILES	melting point [°C]	IC50 [1]	IC50 [2]
O=C(NNS(=O)(=O)c1cccc(F)c1)c1cc2cc(Cl)ccc2o1 [Example 40, 2-Benzofurancarboxylic acid, 5-chloro-2-[(3-fluorophenyl)sulfonyl]hydrazide]	174.4 to 174.7	4.86 µM and 8.8 µM	1 µM
Cc1ccccc1S(=O)(=O)NNC(=O)c1cc2cc(Cl)cc(Cl)c2o1 [Example 71, 2-Benzofurancarboxylic acid, 5,7-dichloro 2-[(2-methylphenyl)sulfonyl]hydrazide]	212 to 214	6.57 µM	0.88 µM
Cc1ccc(F)cc1S(=O)(=O)NNC(=O)c1ccc2oc3ccccc3c2c1 [Example 36, 2-Dibenzofurancarboxylic acid 2-[(5-fluoro-2-methylphenyl)sulfonyl]hydrazide]	210.1 to 210.5	17.5 µM and 18.2 µM	1.1 µM
COc1ccc2oc(C(=O)NNS(=O)(=O)c3ccccc3)c(OC)c2c1 [Example 58, 2-Benzofurancarboxylic acid, 3,5-dimethoxy-, 2-(phenylsulfonyl)hydrazide]	172.2 to 173.8	3.57 µM	0.22 µM
O=C(NNS(=O)(=O)c1ccc(F)c(F)c1)c1cc2cc(Cl)ccc2o1 [Example 41, 2-Benzofurancarboxylic acid, 5-chloro-2-[(3,4-difluorophenyl)sulfonyl]hydrazide]	193.8 to 195	28.8 µM	14.5 µM
O=C(NNS(=O)(=O)c1cccc(Cl)c1)c1cc2cc(Cl)ccc2o1 [Example 43, 2-Benzofurancarboxylic acid, 5-chloro-2-[(3-chlorophenyl)sulfonyl]hydrazide]	202.9 to 205.2	1.8 µM	0.47 µM
O=C(NNS(=O)(=O)c1ccccc1OC(F)(F)F)c1cc2cc(Cl)cc(Cl)c2o1 [Example 76, 2-Benzofurancarboxylic acid, 5,7-dichloro 2-[[2-(trifluoromethoxy)phenyl]-sulfonyl]hydrazide]	234.5 to 236.1	11.2 µM	1.51 µM
O=C(NNS(=O)(=O)c1ccccc1Cl)c1ccc2oc3ccccc3c2c1 [Example 17, 2-Dibenzofurancarboxylic acid 2-[(2-chlorophenyl)sulfonyl]hydrazide]	235 to 236	11.4 µM	1.1 µM and 0.54 µM
N#Cc1cccc(S(=O)(=O)NNC(=O)c2ccc3oc4ccccc4c3c2)c1 [Example 26, 2-Dibenzofurancarboxylic acid 2-[(3-cyanophenyl)sulfonyl]hydrazide]	234 to 236	138 µM	15.2 µM and 6.9 µM
N#Cc1cccc(S(=O)(=O)NNC(=O)c2cc3cc(Cl)ccc3o2)c1 [Example 27, 2-Benzofurancarboxylic acid, 5-chloro-, 2-[(3-cyanophenyl)sulfonyl]hydrazide]	208.5 to 210	171 µM	45.2 µM
O=C(NNS(=O)(=O)c1ccc(F)c(Cl)c1)c1ccc2oc3ccccc3c2c1 [Example 38, 2-Dibenzofurancarboxylic acid 2-[(3-chloro-4-fluorophenyl)sulfonyl]hydrazide]	210.8 to 211.6	29.9 µM	0.77 µM and 0.61 µM
COc1cccc(S(=O)(=O)NNC(=O)c2cc3cc(Cl)ccc3o2)c1 [Example 48, 2-Benzofurancarboxylic acid, 5-chloro-2-[(3-methoxyphenyl)sulfonyl]hydrazide]	204.3 to 204.6	4.21 µM and 7.6 µM	0.91 µM
Cc1cccc(S(=O)(=O)NNC(=O)c2cc3cc(Cl)ccc3o2)c1 [Example 47, 2-Benzofurancarboxylic acid, 5-chloro-2-[(3-methylphenyl)sulfonyl]hydrazide]	201.2 to 201.6	0.84 µM and 1.47 µM	0.15 µM and 0.2 µM
O=C(NNS(=O)(=O)c1cccc(Br)c1)c1cc2cc(Cl)cc(Cl)c2o1 [Example 74, 2-Benzofurancarboxylic acid, 5,7-dichloro 2-[(3-bromophenyl)sulfonyl]-hydrazide]	248.5 to 248.8	64.5 µM	3.71 µM
O=C(NNS(=O)(=O)c1cccc(Cl)c1)c1ccc2oc3ccccc3c2c1 [Example 16, 2-Dibenofurancarboxylic acid 2-[(3-chlorophenyl)sulfonyl]hydrazide]	208 to 209	3 µM and 3.1 µM	0.39 µM and 0.2 µM
O=C(NNS(=O)(=O)c1ccc(F)c(F)c1)c1ccc2oc3ccccc3c2c1 [Example 37, 2-Dibenzofurancarboxylic acid 2-[(3,4-difluorophenyl)sulfonyl]hydrazide]	210.1 to 210.5	41.3 µM	3.5 µM
O=C(NNS(=O)(=O)c1ccc(F)cc1)c1cc2cc(Cl)ccc2o1 [Example 22, 2-Benzofurancarboxylic acid, 5-chloro-2-[(4-fluorophenyl)]sulfonyl hydrazide]	229.4 to 230.5	24.6 µM	4.1 µM
O=C(NNS(=O)(=O)c1ccccc1C(F)(F)F)c1cnc2ccccc2c1 [Example 135, 3-Quinolinecarboxylic acid, 2-[(2-trifluoromethylphenyl)sulfonyl]hydrazide]	203.6 to 204.4	13 µM	2.8 µM
O=C(NNS(=O)(=O)c1ccc(F)cc1Cl)c1cc2cc(Cl)ccc2o1 [Example 30, 2-Benzofurancarboxylic acid, 5-chloro-, 2-[(2-chloro-4-fluorophenyl)sulfonyl]-hydrazide]	204.6 to 206.2	25 µM	5.7 µM
O=C(NNS(=O)(=O)c1ccc(C(F)(F)F)cc1)c1ccc2ccccc2c1 [Example 114]		59.7 µM	26.5 µM
O=C(NNS(=O)(=O)c1ccccc1)c1cc2ccccc2o1 [Example 146, Benzofuran-2-carboxylic acid 2-(phenylsulfonyl)hydrazide]		17.8 µM	2.5 µM
COc1c(C(=O)NNS(=O)(=O)c2ccccc2)oc2c(-c3ccccc3)cccc12 [Example 67, 2-Benzofurancarboxylic acid, 3-methoxy-7-phenyl-, 2-(phenylsulfonyl)hydrazide]		17.3 µM	2.4 µM
O=C(NNS(=O)(=O)c1ccccc1)c1ccc2oc3ccccc3c2c1 [Example 1, Dibenzofuran-2-carboxylic acid 2-(phenylsulfonyl)hydrazide]		2.9 µM and 1.4 µM	0.18 µM
Cc1ccc2oc(C(=O)NNS(=O)(=O)c3cccc(Cl)c3)cc2c1 [Example 84, 2-Benzofurancarboxylic acid, 5-methyl-, 2-[(3-chlorophenyl)sulfonyl]hydrazide]		6.13 µM	0.97 µM
Cc1ccc2oc(C(=O)NNS(=O)(=O)c3cccc(Cl)c3C)cc2c1 [Example 82, 2-Benzofurancarboxylic acid, 5-methyl-, 2-[(3-chloro-2-methylphenyl)sulfonyl]-hydrazide]		3.28 µM	0.51 µM
COc1ccc(Cl)cc1S(=O)(=O)NNC(=O)c1cc2cccc(OC)c2o1 [Example 106, 2-Benzofurancarboxylic acid, 7-methoxy-, 2-[(5-chloro-2-methoxyphenyl)-sulfonyl]hydrazide]		42 µM	5.6 µM
